According to patent US11479551B2, “MTA-cooperative PRMT5 inhibitors” (Mirati Therapeutics, Inc., priority 2019, dated 2022):
Read-outs that look alike come from different tables or passages of the source.

Key:
[1] = target: T1, PRMT5/MEP50 complex (Homo sapiens (Human), UniProt O14744); assay: PRMT5:MEP50 HotSpot Assay (full-length histone H2A substrate, plus and minus MTA); format: biochemical; details: IC50 + 2 μM MTA, in the presence of 2 μM MTA
Procedure, shortened: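 Tritium incorporated into recombinant full-length histone H2A was counted by scintillation after stopped reactions were captured on filter paper.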

[2] = test system: HCT116 homozygous MTAP knockout cells; assay: Proliferation assay (CellTiter-Glo, 10 days of treatment), HCT116 MTAP knockout; format: cell-based; details: read-out: Proliferation HCT116MTAP_KO IC50
Procedure, shortened: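 Viability of the CRISPR/Cas9 homozygous MTAP-knockout HCT116 line was read by CellTiter-Glo after 10 days of PRMT5 inhibitor exposure, with IC50 derived from the dose response. Compound was given the day after seeding and renewed at an identical concentration when cells were split 1:10 on day 6.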

[3] = target: T1, PRMT5/MEP50 complex; assay: PRMT5:MEP50 FlashPlate Assay (histone H4 peptide substrate, plus and minus MTA); format: biochemical
Protocol: The PRMT5 inhibitory activity of compounds of the present invention was determined using either a PRMT5:MEP50 FlashPlate Assay (Reaction Biology Corporation) or a PRMT5:MEP50 HotSpot Assay (Reaction Biology Corporation).
1. PRMT5:MEP50 FlashPlate Assay

[4] = test system: PRMT5-dependent Symmetric Di-methyl Arginine signal in HCT116 homozygous MTAP knockout cells; assay: SYM11 In-Cell Western, HCT116 MTAP knockout; format: cell-based; details: HCT116 homozygous MTAP knockout cells, 4 days of treatment, SYM11/DRAQ5 ratio, read-out: In-cell-Western (SYM11) HCT116 MTAP_KO IC50
[5] = test system: PRMT5-dependent Symmetric Di-methyl Arginine signal in HCT116 parental cells; assay: SYM11 In-Cell Western, HCT116 parental; format: cell-based; details: Homo sapiens, HCT-116, 96 h, 4 days of treatment, SYM11/DRAQ5 ratio
Protocol: Control samples were analyzed in parallel.
Briefly, on Day 0, 2,000 HCT116 parental or HCT116 homozygous MTAP knockout cells were seeded in 96 well plates in McCoy's 5A supplemented with 10% fetal bovine serum and pen/strep and the cells were incubated overnight at 37° C. plus 5% CO2. The following day, cells were treated with DMSO vehicle control or a dose response of PRMT5 inhibitors, and incubated at 37° C. plus 5% CO^2 for four days.
After 4 days of treatment, the cells were fixed by adding 50 μl of 4% paraformaldehyde solution to each well and the cells were incubated for 20 min at room temperature. The paraformaldehyde solution was removed, 150 μl of ice-cold methanol was added and the plate was placed −20° C. for 10 minutes. The methanol was removed, 150 μl of Odyssey Blocking buffer+0.05% Tween20 was added and the plate was incubated at room temperature with shaking for one hour.
The primary SYM11 antibody solution was removed by aspiration and the wells were washed three consecutive times with phosphate buffered saline containing 0.1% Tween-20 (PBST).
The secondary antibody solution was removed by aspiration and the wells were washed three consecutive times with PB ST.
The SYM11 signal and the DRAQ5 signal were quantified using a Li-Cor Odyssey machine reading at […], respectively. The SYM11/DRAQ5 ratio was used to calculate the inhibition of Symmetric Dimethyl Arginine as percent of DMSO control.

[6] = IC50 + 2 μM MTA (nM), in the presence of 2 μM MTA
[7] = in the absence of MTA, read-out: IC50

T1 sequence (O14744 2-637): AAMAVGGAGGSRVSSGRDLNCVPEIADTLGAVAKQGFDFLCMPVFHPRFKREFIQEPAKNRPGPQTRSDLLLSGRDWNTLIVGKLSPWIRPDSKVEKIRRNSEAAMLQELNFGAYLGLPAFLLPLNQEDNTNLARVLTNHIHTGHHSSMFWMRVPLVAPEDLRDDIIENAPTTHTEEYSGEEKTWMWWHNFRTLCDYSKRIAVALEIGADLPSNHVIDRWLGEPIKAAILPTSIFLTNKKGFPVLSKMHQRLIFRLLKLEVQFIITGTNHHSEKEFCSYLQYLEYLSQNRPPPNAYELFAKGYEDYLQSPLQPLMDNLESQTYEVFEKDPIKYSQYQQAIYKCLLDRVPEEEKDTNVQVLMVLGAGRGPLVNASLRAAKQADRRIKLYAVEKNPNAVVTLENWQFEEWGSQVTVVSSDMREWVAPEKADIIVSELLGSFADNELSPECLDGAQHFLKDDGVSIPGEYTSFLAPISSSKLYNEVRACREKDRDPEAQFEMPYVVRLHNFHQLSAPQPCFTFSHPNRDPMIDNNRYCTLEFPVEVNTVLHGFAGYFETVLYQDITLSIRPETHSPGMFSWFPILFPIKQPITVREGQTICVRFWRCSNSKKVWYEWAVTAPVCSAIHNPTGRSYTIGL
T1 sequence (Q9BQA1 2-342 partner): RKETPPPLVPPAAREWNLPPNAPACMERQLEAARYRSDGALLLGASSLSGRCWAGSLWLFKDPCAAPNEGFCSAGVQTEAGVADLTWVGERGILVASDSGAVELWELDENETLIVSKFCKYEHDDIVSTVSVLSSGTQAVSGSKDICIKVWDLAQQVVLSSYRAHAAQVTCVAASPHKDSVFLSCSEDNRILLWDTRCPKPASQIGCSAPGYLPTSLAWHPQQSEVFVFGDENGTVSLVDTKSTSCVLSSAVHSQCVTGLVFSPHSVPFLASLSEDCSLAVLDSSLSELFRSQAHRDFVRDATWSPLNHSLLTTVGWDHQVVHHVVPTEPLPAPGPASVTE

Row | Structure (SMILES) | IC50 [1] | IC50 [2] | IC50 [3, 6] | IC50 [4] | IC50 ([2]; Homo sapiens, HCT-116, 240 h) | IC50 [3, 7] | IC50 ([4]; Homo sapiens, HCT-116, 96 h) | IC50 [5]
1 | CC(N)c1n[nH]c(=O)c2ccc(-c3cnn(C)c3-c3cccc(Cl)c3C#N)cc12 (single isomer, unassigned) [Example 9-2, 2-[4-[4-(1-aminoethyl)-1-oxo-2H-phthalazin-6-yl]-2-methyl-pyrazol-3-yl]-6-chloro-benzonitrile] | > 10000 nM | > 10000 nM | > 10000 nM | > 1000 nM | – | – | – | –
2 | Cn1ncc(-c2ccc3c(=O)[nH]nc(CN)c3c2)c1-c1ccc(Cl)cc1C#N [Example 4-101, 2-(4-(4-(aminomethyl)-1-oxo-1,2-dihydrophthalazin-6-yl)-1-methyl-1H-pyrazol-5-yl)-5-chlorobenzonitrile] | 892 nM | – | 0.5 nM | – | 2310 nM | 17 nM | 376 nM | 6670 nM
3 | Cn1ncc(-c2ccc3c(=O)[nH]nc(CN)c3c2)c1-c1cc(Cl)ccc1C#N [Example 4-103, 2-(4-(4-(aminomethyl)-1-oxo-1,2-dihydrophthalazin-6-yl)-1-methyl-1H-pyrazol-5-yl)-4-chlorobenzonitrile] | – | – | 0.5 nM | – | 4390 nM | 115 nM | 255 nM | 6670 nM
4 | COc1ccc(C#N)c(-c2c(-c3ccc4c(=O)[nH]nc(CN)c4c3)cnn2C)c1 [Example 4-104, 2-(4-(4-(aminomethyl)-1-oxo-1,2-dihydrophthalazin-6-yl)-1-methyl-1H-pyrazol-5-yl)-4-methoxybenzonitrile] | 794 nM | – | 0.5 nM | – | 5320 nM | 28 nM | 391 nM | 3330 nM
5 | Cc1ccc(C#N)c(-c2c(-c3ccc4c(=O)[nH]nc(CN)c4c3)cnn2C)c1 [Example 4-105, 2-(4-(4-(aminomethyl)-1-oxo-1,2-dihydrophthalazin-6-yl)-1-methyl-1H-pyrazol-5-yl)-4-methylbenzonitrile] | 1000 nM | – | 1.8 nM | – | 1400 nM | 71 nM | 469 nM | 10000 nM
6 | Cc1ccc(-c2c(-c3ccc4c(=O)[nH]nc(CN)c4c3)cnn2C)c(C#N)c1 [Example 4-106, 2-(4-(4-(aminomethyl)-1-oxo-1,2-dihydrophthalazin-6-yl)-1-methyl-1H-pyrazol-5-yl)-5-methylbenzonitrile] | 816 nM | – | 0.5 nM | – | 1600 nM | 56 nM | 261 nM | 3330 nM
7 | COc1cccc(-c2c(-c3ccc4c(=O)[nH]nc(CN)c4c3)cnn2C)c1C#N [Example 4-107, 2-(4-(4-(aminomethyl)-1-oxo-1,2-dihydrophthalazin-6-yl)-1-methyl-1H-pyrazol-5-yl)-6-methoxybenzonitrile] | 760 nM | – | 0.5 nM | – | 1060 nM | 37 nM | 31 nM | 10000 nM
8 | NCc1n[nH]c(=O)c2ccc(-c3cnc4[nH]cc(-c5ccccc5)c4c3)cc12 [Example 4-190, 4-(aminomethyl)-6-(3-phenyl-1H-pyrrolo[2,3-b]pyridin-5-yl)phthalazin-1(2H)-one] | 278 nM | – | – | – | 1980 nM | – | > 3330 nM | > 3330 nM
9 | Cn1ncc(-c2ccc3c(=O)[nH]nc(CN)c3c2)c1-c1cc(C#N)c2ccccc2c1C#N [Example 4-207, 2-(4-(4-(aminomethyl)-1-oxo-1,2-dihydrophthalazin-6-yl)-1-methyl-1H-pyrazol-5-yl)naphthalene-1,4-dicarbonitrile] | – | – | – | – | 98 nM | – | 3 nM | > 10000 nM
10 | Cn1ncc(-c2ccc3c(=O)[nH]nc(CN)c3c2)c1-c1cccc2c1COCC2 [Example 4-221, 4-(aminomethyl)-6-(5-(isochroman-8-yl)-1-methyl-1H-pyrazol-4-yl)phthalazin-1(2H)-one] | 501 nM | – | – | – | 2380 nM | – | 196 nM | –
11 | Cn1ncc(-c2ccc3c(=O)[nH]nc(CN)c3c2)c1-c1cccc2ccncc12 [Example 4-222, 4-(aminomethyl)-6-(5-(isoquinolin-8-yl)-1-methyl-1H-pyrazol-4-yl)phthalazin-1(2H)-one] | 255 nM | – | – | – | 5340 nM | – | 296 nM | –
12 | Cn1ncc(-c2ccc3c(=O)[nH]nc(CN)c3c2)c1-c1ccc(OC2CC2)c2cncn12 [Example 4-238, 4-(aminomethyl)-6-(5-(8-cyclopropoxyimidazo[1,5-a]pyridin-5-yl)-1-methyl-1H-pyrazol-4-yl)phthalazin-1(2H)-one] | 2310 nM | – | – | – | 1940 nM | – | 843 nM | –
13 | CCOc1ccc(-c2c(-c3ccc4c(=O)[nH]nc(CN)c4c3)cnn2C)cc1 [Example 4-254, 4-(aminomethyl)-6-[5-(4-ethoxyphenyl)-1-methyl-pyrazol-4-yl]-2H-phthalazin-1-one] | – | – | – | – | 2170 nM | – | 377 nM | 3330 nM
14 | Cn1ncc(-c2ccc3c(=O)[nH]nc([C@@H](N)C(F)F)c3c2)c1-c1ccc2ccccc2c1C#N [Example 9-7, 2-[4-[4-[(1R)-1-amino-2,2-difluoro-ethyl]-1-oxo-2H-phthalazin-6-yl]-2-methyl-pyrazol-3-yl]naphthalene-1-carbonitrile] | 2560 nM | – | – | – | > 10000 nM | – | > 1000 nM | –

The next lines start with results.

Row | IC50 [1] | IC50 [2] | IC50 [3, 6] | IC50 [4] | IC50 ([2]; Homo sapiens, HCT-116, 240 h) | IC50 [3, 7] | IC50 ([4]; Homo sapiens, HCT-116, 96 h) | Structure (SMILES) | IC50 [5]
15 | 176 nM | – | – | – | 4370 nM | – | 436 nM | Cn1ncc(-c2ccc3c(=O)[nH]nc(CN)c3c2)c1-c1ccc(-c2cnsc2)cc1C#N [Example 12-4, 2-[4-[4-(aminomethyl)-1-oxo-2H-phthalazin-6-yl]-2-methyl-pyrazol-3-yl]-5-isothiazol-4-yl-benzonitrile] | –
16 | 112 nM | – | – | – | 3170 nM | – | 456 nM | Cn1cc(-c2ccc(-c3c(-c4ccc5c(=O)[nH]nc(CN)c5c4)cnn3C)c(C#N)c2)cn1 [Example 12-5, 2-(4-(4-(aminomethyl)-1-oxo-1,2-dihydrophthalazin-6-yl)-1-methyl-1H-pyrazol-5-yl)-5-(1-methyl-1H-pyrazol-4-yl)benzonitrile] | –
17 | 730 nM | – | – | – | 7470 nM | – | 380 nM | Cn1cc(-c2ccc(C#N)c(-c3c(-c4ccc5c(=O)[nH]nc(CN)c5c4)cnn3C)c2)cn1 [Example 12-6, 2-[4-[4-(aminomethyl)-1-oxo-2H-phthalazin-6-yl]-2-methyl-pyrazol-3-yl]-4-(1-methylpyrazol-4-yl)benzonitrile] | –
18 | 603 nM | – | – | – | 4980 nM | – | 427 nM | Cn1ncc(-c2ccc3c(=O)[nH]nc(CN)c3c2)c1-c1cc(-c2cnsc2)ccc1C#N [Example 12-7, 2-(4-(4-(aminomethyl)-1-oxo-1,2-dihydrophthalazin-6-yl)-1-methyl-1H-pyrazol-5-yl)-4-(isothiazol-4-yl)benzonitrile] | –
19 | 3860 nM | – | – | – | 7800 nM | – | 2860 nM | Cn1ncc(-c2ccc3c(=O)[nH]nc(CN)c3c2)c1-c1cc(C2CCOC2)ccc1C#N (stereo not shown) [Example 12-8, 2-[4-[4-(aminomethyl)-1-oxo-2H-phthalazin-6-yl]-2-methyl-pyrazol-3-yl]-4-THF-3-yl-benzonitrile] | –
